In brackets after ≈: the same amount, converted by molar mass.
Assays:
[1] = parameters: method as in PMID 23603295; conditions: previous studies; cited from earlier work
TDC [2] = test: ELISA of TDC specific activity in feces of 6-OHDA-lesioned rats; type: in vivo, rat; conditions: 6-OHDA-lesioned rats after 6 weeks of administration; combination vs L-dopa alone
Procedure: (§1) The rat feces were weighed and suspended in lysis buffer. After centrifugation at 800 g for 10 min, the supernatants were collected and added with lysozyme. The mixtures were centrifuged at 12,000 g for 20 min, and the supernatants were obtained for protein concentration determination and the detection of TDC level in rat feces using rat TDC ELISA kit (MM‐71824R1, MEIMIAN). The results are expressed as U/mg protein.

[3] = PIP 10 and 20 mg/kg, rats; cited from earlier work
E. faecalis ATCC29212 = test: L-dopa conversion rate in E. faecalis ATCC29212 culture; type: cell-based, Enterococcus faecalis; conditions: 24 h, anaerobic, vs L-dopa alone
Procedure: (§2) The column was maintained at 40°C.
(§3) The growth control group and negative control group were set. The cultures were incubated at 37°C under an anaerobic environment. The 1 mL of incubation sample and twofold cold acetonitrile were added to terminate the incubation. After centrifugation at 12,000 g for 10 min, the supernatants were collected for HPLC‐FLD analysis.

[4] = Solubility limit of PIP in the TDC enzyme assay; type: physicochemical; conditions: 37 °C, pH 5.5, aqueous buffer
Procedure: (§4) TDC (from E. faecalis NCTC6783, Aladdin; 0.02 mg/mL) and PLP (2 mM, Sigma) were pre‐incubated with various concentrations (0.01–250 μM) of PIP in 0.2 M sodium acetate buffer (pH = 5.5) at 37°C for 15 min. […] After 20 min of incubation, the reaction was quenched by diluting 1:10 in methanol containing 0.7% perchloric acid.[25] The mixture was centrifuged at 12,000 g (4°C) for 5 min, and the supernatant was collected for the determination of DA by HPLC‐ECD.

[5] = test system: TDC mRNA in E. faecalis ATCC29212; test: RT-qPCR of TDC gene expression in E. faecalis ATCC29212; type: cell-based, Enterococcus faecalis; conditions: PIP 10 or 20 μg/mL, 24 h
Procedure: as §3
Total RNA was extracted from the culture pellets generated in the experiment described above “Incubation of E. faecalis in vitro” using the RNAprep Pure Cell/Bacteria Kit (TIANGEN). A FastQuant RT Kit (with gDNase) (TIANGEN) was used to transcribe RNA to cDNA. After that, RT–qPCR was conducted using 2 × SuperReal PreMix Plus (TIANGEN) and performed on the CFX Connect™ Real‐Time System (Bio–Rad) following the amplification program: 95°C for 15 min, followed by 40 cycles of 95°C for 10 s, 52°C for 31 s, and 72°C for 30 s. The program ended with a final extension at 72°C for 10 min. The relative gene expression was calculated using the 2^−^ΔΔ^Ct method.

[6] = L-dopa conversion rate in rat whole blood and tissue homogenates in vitro; type: in vitro ADME; conditions: L-dopa 0.3 mM + PIP 10 or 20 μg/mL, 12 and 24 h, vs L-dopa alone
Procedure: as §2
(§5) The whole blood, colon contents, jejunum, and brain tissues of SD rats (n = 6) were collected. Colonic contents were pooled and suspended in anaerobic medium (Aobox) at a ratio of 1:20 (g/mL), the mixtures were centrifuged at 800 g (4°C) for 10 min, and then collected the supernatant for culture. Tissues were pooled and weighed, then homogenized with 5 mM phosphate buffer (pH = 7.4) at the ratio of 1:5 (g/ml). […] The intestinal bacterial cultures were incubated in an anaerobic chamber, while tissues or blood incubation systems were incubated at 37°C for 12 and 24 h, and then the incubation was terminated with three‐fold acetonitrile. After centrifugation at 12,000 g for 10 min, the supernatants were collected for HPLC‐FLD analysis.

TDC in E. faecalis = test: ELISA of TDC specific activity in E. faecalis ATCC29212; type: cell-based, Enterococcus faecalis; conditions: PIP 10 or 20 μg/mL, 24 h
Procedure: as §3
The bacterial protein was extracted from the culture pellets generated as described above. After being washed with PBS three times, the bacterial pellets were re‐suspended in 400 μL PBS containing 2% ethanol and incubated in ice bath for 30 min. After centrifugation at 1000 g for 10 min, the sediments were collected and lysed using lysis buffer containing 100 μg/mL lysozyme, then centrifuged at 12,000 g for 20 min to collect the supernatants. After determining the protein concentration using the BCA kit (Beyotime), the assay of TDC level in E. faecalis was performed according to the Microorganism TDC Elisa kit (MM‐925239O2, MEIMIAN) guideline. Briefly, the extracted protein samples were added to the coated wells together with the balance solution and HRP conjugate reagent, then incubated at 37°C. […] After adding the stop solution to each well, the optical density was measured at the wavelength of 450 nm. The specific activity of TDC was calculated based on the standard curve. The results are expressed as U/mg protein.

E. faecalis [7] = test: qPCR quantification of E. faecalis in feces of 6-OHDA-lesioned rats; type: in vivo, rat; conditions: PIP 10 and 20 mg/kg after 3 weeks, dose-dependent, combination vs L-dopa after 6 weeks
Procedure: (§6) The damage of rat dopaminergic neurons was assessed by apomorphine (APO, Sigma)‐induced rotation tests at the 5th, 8th, and 11th weeks of experiment.[17] […] The dosages of PIP used in the present study were safe for rats.[21] Rats were treated once a day for 6 weeks. The 6‐OHDA group and sham group were treated with the same volume of substrate solution (0.5% CMC‐Na).
(§7) Fecal microbial genomic DNA was extracted using the TIANamp Stool DNA Kit (TIANGEN). Plasmids containing the target sequences of E. faecalis 16 S rRNA and TDC were prepared (Figure S1A,B). Then, 10‐fold serial dilutions of plasmid were used as the templates to make the standard curves for absolute quantification. Quantitative PCR (qPCR) experiments were performed on 40 ng DNA in 20 μL reactions, following the amplification program: initial denaturation at 95°C for 15 min, 45 cycles of 95°C for 10 s, 58°C for 31 s, 72°C for 30 s, ended with a final extension at 72°C for 10 min. The absolute E. faecalis 16 S rRNA gene and TDC gene copies in fecal DNA samples were calculated based on the standard curves.

MAO = test system: MAO; parameters: method as in PMID 32099971; conditions: reported; cited from earlier work
[8] = biological target: T1, TDC (from E. faecalis NCTC6783) (Enterococcus faecalis, UniProt P0DTQ4); test: TDC enzyme assay (DA produced from L-dopa); type: biochemical; conditions: 250 μM PIP, L-dopa 0.3 mM, pH 5.5, relative to solvent control
T1 construct: purchased Aladdin
T1 sequence (P0DTQ4 1-620): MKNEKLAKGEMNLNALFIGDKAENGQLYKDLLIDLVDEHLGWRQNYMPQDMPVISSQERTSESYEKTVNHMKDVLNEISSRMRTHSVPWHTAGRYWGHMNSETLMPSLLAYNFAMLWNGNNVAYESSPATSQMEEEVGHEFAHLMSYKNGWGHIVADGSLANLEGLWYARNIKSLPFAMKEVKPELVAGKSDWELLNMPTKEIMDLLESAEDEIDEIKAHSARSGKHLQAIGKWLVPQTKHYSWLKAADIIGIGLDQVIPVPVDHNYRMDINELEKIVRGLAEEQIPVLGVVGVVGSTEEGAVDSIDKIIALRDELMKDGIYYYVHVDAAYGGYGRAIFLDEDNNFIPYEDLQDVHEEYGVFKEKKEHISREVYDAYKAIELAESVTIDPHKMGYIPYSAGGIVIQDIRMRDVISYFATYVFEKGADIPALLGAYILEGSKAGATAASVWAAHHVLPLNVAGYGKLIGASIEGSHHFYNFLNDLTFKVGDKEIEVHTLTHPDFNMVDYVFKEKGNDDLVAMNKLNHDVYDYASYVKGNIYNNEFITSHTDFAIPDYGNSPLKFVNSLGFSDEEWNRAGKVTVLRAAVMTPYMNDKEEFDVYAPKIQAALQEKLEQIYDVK
Procedure: as §4

TDC [9] = test: qPCR quantification of TDC in feces of 6-OHDA-lesioned rats; type: in vivo, rat; conditions: PIP dose-dependent, after 3 weeks, vs 6-OHDA
Procedure: as §6, §7

[10] = test system: intestinal bacteria of SD rats; test: L-dopa conversion rate in rat intestinal bacteria (feces) culture in vitro; type: cell-based; conditions: 24 h, anaerobic, vs L-dopa alone
Procedure: as §2, §5

[11] = test system: tyrosine hydroxylase (TH); test: Western blot of tyrosine hydroxylase in lesioned substantia nigra; type: in vivo, rat; conditions: 6-OHDA-lesioned rats, 6 weeks
Procedure: as §6
The left substantia nigra (SN) of rat was lysed using non‐denaturing lysis buffer, and immunoblotting was performed following the reported protocol.[19] Protein homogenates were subjected to Western blot analysis using antibodies against tyrosine hydroxylase (TH, 1:1000, Sigma) and GAPDH (1:2000, Proteintech). The blots were visualized by a NcmECL Ultra Western blot diction kit (NCM Biotech), and densitometry was analyzed by using the Fusion FX Image system (Vilber Lourmat).

TDC [12] = test: TDC gene expression and specific activity in feces of E. faecalis-transplanted rats; type: in vivo, rat; conditions: 1 week of administration, combination vs L-dopa alone
Procedure: as §7, §1

DA in rat striatum = test: Striatal DA content by HPLC-ECD in 6-OHDA-lesioned rats; type: in vivo; conditions: 6 weeks, L-dopa vs 6-OHDA, combination vs L-dopa alone in lesioned striatum
E. faecalis [13] = test: qPCR of E. faecalis in feces of E. faecalis-transplanted rats; type: in vivo, rat; conditions: 1 week of administration, combination vs L-dopa alone
Procedure: as §7

6-OHDA-lesioned rats = test: Open-field test in 6-OHDA-lesioned rats; type: in vivo, rat; conditions: L-dopa 60 mg/kg, PIP 20 mg/kg, once a day for 6 weeks
Procedure: Adaptively raised for 1 week, SD rats were randomly divided into two groups: the sham‐operated group (n = 6) and the 6‐OHDA‐lesioned group (n = 36). After deep anesthesia, the rats were stereotaxically injected with 3 μL 6‐OHDA (4 mg/mL in 0.02% ascorbic acid saline; Sigma) into the left striatum following our previously described protocol,[17] and the rats in sham group were injected with 3 μL vehicle (0.02% ascorbic acid saline).
as §6
Open‐field test was conducted on the 2nd day after the rotation test. The movements in 5 min of rats in open‐field apparatus (100 × 100 × 40 cm), including total movement distance (cm) and horizontal velocity (cm/s), were recorded by the TruScan Activity Monitoring System (USA). Abnormal involuntary movements (AIMs) were scored according to the rating system described in Lee's study.[22] […] Then, the dyskinesia behaviors of rats, including axial dystonia, reverse rotation, and limb and masticatory dyskinesia, were evaluated during a 1‐min monitoring period, repeated every 20 min for 2 h. […]

For `O=C(/C=C/C=C/c1ccc2c(c1)OCO2)N1CCCCC1` [PIP, piperine], the “crossing of the blood-brain barrier” value [1] is given as “can cross”, the tissue distribution [1] is given as “wide tissue distribution” and the “specific activity of TDC in feces (ELISA)” value (TDC [2]) is given as “significantly decrease”. For the same compound, the “safety of the dosages used” value [3] was “safe”, the “decrease of CR of L-dopa” value (E. faecalis ATCC29212; PIP 10 μg/mL + L-dopa 0.3 mM) was 17.22% and the “decrease of CR of L-dopa” value (E. faecalis ATCC29212; PIP 20 μg/mL + L-dopa 0.3 mM) was 32.01%. The solubility [4] was 250 µM (≈ 71.3 µg/mL), the “gene expression of TDC in E. faecalis” value [5] was “reduced” and the “CR of L-dopa in brain homogenate” value ([6]; rat brain homogenate) was “no significant difference”. For the same compound, the “CR of L-dopa in small intestine homogenate” value ([6]; rat small intestine homogenate) was “no significant difference”, the “CR of L-dopa in blood” value ([6]; rat whole blood) was “no significant difference” and the “specific activity of TDC in E. faecalis” value (TDC in E. faecalis) was “reduced”. For the same compound, the “abundance of E. faecalis in feces (qPCR)” value (E. faecalis [7]) was “significantly reduce”, the MAO inhibition (MAO) was “potential to inhibit MAO activity” and the “decrease in TDC activity” value [8] was 20.95%. The “expression of TDC in feces (qPCR)” value (TDC [9]) was “significantly suppressive effect”, the “decrease of conversion rate (CR) of L-dopa” value ([10]; PIP 10 μg/mL + L-dopa 0.3 mM) was 17.02% and the “decrease of conversion rate (CR) of L-dopa” value ([10]; PIP 20 μg/mL + L-dopa 0.3 mM) was 27.55%. The “lesions of dopaminergic neurons (TH protein level in SN)” value [11] was “efficiently attenuate the lesions”.

In the case of `N[C@@H](Cc1ccc(O)c(O)c1)C(=O)O` [L‐dopa, Levodopa], the “expression of TDC in feces” value (TDC [12]) is reported as “upregulation”, the “DA level in striatum (HPLC-ECD)” value (DA in rat striatum) is reported as “significantly increased” and the “abundance of E. faecalis in feces” value (E. faecalis [13]) is reported as “no significant effect”. For the same compound, the “movement speed in open field” value (6-OHDA-lesioned rats) was “alleviate the bradykinesia”, the “total movement distance in open field” value (6-OHDA-lesioned rats) was “alleviate the bradykinesia” and the “abundance of E. faecalis in feces (qPCR)” value (E. faecalis [7]) was “did not show a notable effect”. For the same compound, the “expression of TDC in feces (qPCR)” value (TDC [9]) was “further increased”.
